Assay: Tissue distribution of selenium-75-labelled sterols in rats, sixth day post-injection
Assay type: in vivo, rats of the C.F.Y. strain
Settings: tail vein, dose: 1, 7: 40 μCi, 6: 50 μCi, 3: 30 μCi, 4: 1.5 μCi, 5: 10 μCi, 8: 6.3 μCi; for % dose kg./g. in Ovaries: female rats; for % dose kg./g. in Adrenals / % dose kg./g. in Blood / % dose kg./g. in Kidneys / % dose kg./g. in Liver / % dose kg./g. in Muscle: male and female rats; for % dose kg./g. in Testes: male rats; for Concentration Ratio; Adrenals: Kidneys / Concentration Ratio; Adrenals: Liver / Concentration Ratio; Adrenals: Muscle / Concentration Ratio; Adrenals: Ovaries / Concentration Ratio; Adrenals: Testes / Concentration Ratio; Adrenals: Blood: rats; for Concentration Ratio; Adrenals: Blood: 8640 min
Method: The tissue distribution and target to non-target concentration ratios for seven compounds were studied in male and female rats (150-180 g) of the C.F.Y. strain. Each compound (in a volume of 0.3ml) was injected via the tail vein into two male and two female rats. The animals were then housed in separate metabolism cages prior to sacrifice and dissecting on the sixth day post-injection.

| SMILES | % dose kg./g. in Ovaries | % dose kg./g. in Adrenals | % dose kg./g. in Blood | % dose kg./g. in Kidneys | % dose kg./g. in Liver | % dose kg./g. in Muscle | % dose kg./g. in Testes | Concentration Ratio; Adrenals: Kidneys | Concentration Ratio; Adrenals: Liver | Concentration Ratio; Adrenals: Muscle | Concentration Ratio; Adrenals: Ovaries | Concentration Ratio; Adrenals: Testes | Concentration Ratio; Adrenals: Blood |
| --- | --- | --- | --- | --- | --- | --- | --- | --- | --- | --- | --- | --- | --- |
| C[75Se]C[C@@H]1C[C@@H]2[C@H](CC[C@]3(C)[C@@H]([C@H](C)CCCC(C)C)CC[C@@H]23)C2=C1C[C@@H](OC(C)=O)CC2 [Example 6, 6β-methylselenomethyl-19-norcholest-5(10)-en-3β-ol-acetate-^75 Se] | 3.232 % dose kg./g. | 12.561 % dose kg./g. | 0.025 % dose kg./g. | 0.108 % dose kg./g. | 0.074 % dose kg./g. | 0.022 % dose kg./g. | 0.041 % dose kg./g. | 116.0 | 161.1 | 536.3 | 5.7 | 166.4 | 469.2 |
| CCCC[75Se]C[C@@H]1C[C@@H]2[C@H](CC[C@]3(C)[C@@H]([C@H](C)CCCC(C)C)CC[C@@H]23)C2=C1C[C@@H](O)CC2 [Example 3, 6β-butylselenomethyl-19-norcholest-5(10)-en-3β-ol-^75 Se] | 2.553 % dose kg./g. | 7.563 % dose kg./g. | 0.009 % dose kg./g. | 0.052 % dose kg./g. | 0.096 % dose kg./g. | 0.012 % dose kg./g. | 0.023 % dose kg./g. | 144.8 | 79.0 | 809.6 | 4.0 | 268.3 | 581.9 |
| CC(C)CCC[C@@H](C)[C@H]1CC[C@H]2[C@@H]3C[C@@H](C[75Se]C4CCCCC4)C4=C(CC[C@H](O)C4)[C@H]3CC[C@]12C [Example 4, 6β-cyclohexylselenomethyl-19-norcholest-5(10)-en-3β-ol-^75 Se] | 2.568 % dose kg./g. | 3.609 % dose kg./g. | 0.026 % dose kg./g. | 0.038 % dose kg./g. | 0.148 % dose kg./g. | 0.012 % dose kg./g. | 0.034 % dose kg./g. | 75.1 | 24.9 | 303.1 | 1.6 | 89.8 | 137.4 |
| CC(C)CCC[C@@H](C)[C@H]1CC[C@H]2[C@@H]3C[C@@H](C[75Se]Cc4ccccc4)C4=C(CC[C@H](O)C4)[C@H]3CC[C@]12C [Example 5, 6β-benzylselenomethyl-19-norcholest-5(10)-en-3β-ol-^75 Se] | 2.425 % dose kg./g. | 5.286 % dose kg./g. | 0.042 % dose kg./g. | 0.083 % dose kg./g. | 0.393 % dose kg./g. | 0.015 % dose kg./g. | 0.042 % dose kg./g. | 63.4 | 13.4 | 355.3 | 2.6 | 101.4 | 126.3 |
